Key:
[1] = Stability of folates under the acidic/basic conditions of sample work-up; assay type: physicochemical
Method: (§1) An aliquot of the resulting solution (50 μL) was then analyzed by LC-MRM/MS.
5-FTHF and 10-FTHF undergo dehydration to 5,10-MTHF under acidic conditions in a pH-dependent manner (FIG. 1). In contrast, under neutral or alkaline pH conditions, 5,10-MTHF is converted into 10-FTHF, which then slowly interconverts with 5-FTHF. These different forms of folate are present in RBCs primarily in polyglutamated forms. […] This made it difficult to reliably quantify the individual amounts of 5-FTHF, 10-FTHF, and 5,10-MTHF in the RBCs. Conversion of 5-FTHF and 10-FTHF into 5,10-MTHF proceeded quantitatively at pH 1.5. As a result, it was possible to accurately quantify the pool of folate precursors available for conversion into 5,10-METHF simply by acidifying the RBC extract (FIG. 1). […] They were then acidified to pH 1.5 with 1M HCl ready for analysis of the 5-METHF precursors as 5,10-MTHF (FIG. 1). The [^13C5]-5-FTHF internal standard was quantitatively converted into [^13C5]-5,10-MTHF, which made it possible to accurately quantify the amount of unlabeled 5-FTHF and 10-FTHF, as well as any 5,10-MTHF that had been present in the sample originally. […] However, it is so rapidly utilized in cellular processes by enzymes such as MTHFR, serine hydroxymethyltransferase, and thymidylate synthase (FIG. 6) that it is unlikely to be present in significant quantities.

RBC folate = RBC folate derivatives (LC-MRM/MS) before and after low dose MTX treatment of arthritis patients; assay type: in vivo, human; details: ratio, 24 wk of MTX, Caucasians, 115 pairs
Method: Eight calibration standards were prepared in the range 4.5 to 900 nmol/L in 1% ascorbic acid and 10 mM 2-mercaptoethanol (to prevent oxidation). To 500 μL of whole blood (1:10 diluted with 1% ascorbic acid) was added 20 μL of internal standard solution (150 pg/μL each of [^13C5]-FA, [^13C5]-THF, [^13C5]-5-MTHF, and [^13C5]-5-FTHF). For hydrolysis of folylpolyglutamates, 1N sodium hydroxide (6 μL) was added to each tube to adjust the pH to 5.0 and the samples were mixed immediately. In selected experiments, pteroylhepta-γ-L-glutamic acid (5 ng) was added to replicate […] RBC preparations from five different subjects in order to monitor the efficiency of folylpolyglutamate hydrolysis. […]
as §1
RBC folate concentrations were calculated according to the method of Lamers et al.(2006, Am. J. Clin. Nutr. 84(1):156-61): RBC folate={(whole blood folate×100)−[plasma folate×(100−hematocrit)]}/hematocrit.
Serum MCP-1 levels were measured using a human MCP-1 ELISA kit (BD Biosciences) according to the manufacturer's instructions. Total homocysteine (tHcy) and both plasma and red blood cell (RBC) folate derivatives were measured using stable isotope dilution liquid chromatography, multiple reaction monitoring, mass spectrometry (LC/MRM/MS) as described elsewhere herein. […]

plasma folate = test: Plasma folates (LC-MRM/MS) before and after low dose MTX treatment of arthritis patients; assay type: in vivo, human; details: 24 wk of MTX, Caucasians, 119 pairs
Method: To each plasma sample (300 μL) was added water (200 μL) containing 1% ascorbic acid and 10 mM 2-mercaptoethanol. After the addition of 20 μL internal standard solution (150 pg/μL each of [^13C5]-FA, [^13C5]-THF, [^13C5]-5-MTHF, and [^13C5]-5-FTHF) the samples were thoroughly mixed. Water (1 mL) containing 1% ascorbic acid and 1% methanol was added prior to purification using SPE columns.
The following experiments were designed to assess the phenotypic changes elicited by low dose methotrexate (MTX) treatment. MTX has been widely used as the anti-inflammatory and immunomodulatory agent for the treatment of patients with rheumatoid arthritis and other inflammatory disorders by weekly low-dose (7.5-25 mg).
This indicates a quantitative and qualitative modification of folate phenotype (even though folic acid supplements were prescribed along with the MTX) that results in elevated MCP-1 concentrations (p<0.0001).

| Stability under both acidic and basic conditions [1] | Structure (SMILES) | RBC (5,10MT/5MTH) (mean ± SD) (RBC folate; baseline 0.026 ± 0.095) | RBC(THF/5MTH) (mean ± SD) (RBC folate; baseline 0.118 ± 0.387) | Plasma FA (mean ± SD) (plasma folate; baseline 7.10 ± 26.62, folic acid supplements prescribed along with MTX) | Plasma 5MTH (mean ± SD) (plasma folate; baseline 53.14 ± 31.14) |
| --- | --- | --- | --- | --- | --- |
| extremely unstable | Nc1nc2c(c(=O)[nH]1)N1CN(c3ccc(C(=O)N[C@@H](CCC(=O)O)C(=O)O)cc3)CC1CN2 (some centres unmarked) [5,10-METHF, 5,10-methylenetetrahydrofolic acid] |  |  |  |  |
|  | CN(Cc1cnc2nc(N)nc(N)c2n1)c1ccc(C(=O)N[C@@H](CCC(=O)O)C(=O)O)cc1 [MTX, methotrexate] | 0.051 ± 0.241 | 0.175 ± 0.757 | 36.20 ± 63.60 | 39.90 ± 31.51 |

From patent publication US8541243B2, “Method for assessment of folate phenotypes, disease risk and response to therapy” (The Trustees of the University of Pennsylvania, priority 2008, dated 2013)
